How the values were obtained:
HaCaT cells [1] = assay: VEGF-mediated intracellular ROS formation (DCFH-DA); type: cell-based, human; details: 0.3 to 3 µM
Description: VEGF acts as an inducer in reactive oxygen species (ROS) formation; such an interaction plays an essential role in the activation of VEGFR2-mediated pathways and downstream cell migration.
Figure 7 RE-1 attenuates VEGF-mediated ROS formation in HaCaT cells. (A) HaCaT cells were seeded onto coverslips and mounted with Prolong Gold Antifade Reagent with DAPI. Pictures of cells were captured with confocal microscopy Leica SP8 (Leica, Germany). (B) The intensities of fluorescent signals by DCFH-DA were quantified using the software Leica Application Suite (LAS, 4.12 version) X. Values were calculated as percentage of changes compared with the blank control (only medium), in mean ± SD, n = 4. * p < 0.05; compared with the control group.
Intracellular ROS accumulation was measured with a fluorescent ROS indicator DCFH-DA. Procedures were conducted as described previously. In brief, HaCaT cells were seeded onto coverslips at a density of 1 × 10^5 cells/mL. Following drug treatments, a DCFH-DA probe diluted in serum-free medium at 20 μM was introduced to the cells. The cells were incubated with DCFH-DA for 20 min in a 37 °C incubator. PBS wash was followed to rinse off the residual DCFH-DA. Following this, the cells were fixed with 4% paraformaldehyde (PFA) in PBS for 15 min at room temperature. The PFA was washed off with a PBS wash twice. Coverslips with fixed cells were mounted with Prolong Gold Antifade Reagent with DAPI (Cell Signalling Technology, Boston, MA, USA). Pictures of cells were captured with confocal microscopy Leica SP8 system at 20× magnification (Leica, Wetzlar, Germany). The intensities of fluorescent signals by DCFH-DA were determined through the software Leica Application Suite (LAS) X (Leica Microsystems, Wetzlar, Germany).

[2] = Stability test by HPLC (intra- and inter-day variability); type: physicochemical; details: for Intra-day RSD: n = 6; for Intra-day Mean Peak Area: n = 6, HPLC 210 nm; for Inter-day Mean Peak Area / Inter-day RSD: n = 6, five successive days
VEGF165 protein = molecular target: T1, VEGF165 protein (Homo sapiens, UniProt P15692); assay: SPR binding affinity assay (Biacore T200); details: immobilized VEGF165, analytes 1 to 30 µM, estimated, read-out: dissociation constant (Kd)
T1 sequence (P15692 1-191 isoform P15692-4): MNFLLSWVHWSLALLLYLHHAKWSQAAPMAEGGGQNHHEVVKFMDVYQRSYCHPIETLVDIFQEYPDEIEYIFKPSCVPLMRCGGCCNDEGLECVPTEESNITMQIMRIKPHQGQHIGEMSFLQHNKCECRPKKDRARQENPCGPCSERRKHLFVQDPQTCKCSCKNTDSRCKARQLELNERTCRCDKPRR
Description: In parallel, an ultrafiltration assay was conducted in the presence and absence of VEGF protein (Figure 2A). […] Subsequently, SPR investigation was performed using Biacore T200 (Cytiva, Washington, DC, USA) to detect the binding affinities of RE-1 to the targeted protein. […] When the binding activities between analytes and the protein were detected, response units (RUs) could be calculated and obtained accordingly.
Binding affinities between analytes and VEGF protein were determined using a Biacore T200 (Cytiva, Washington, DC, USA) with a GE Series dextran-coated (CM5) sensor chip. Specifically, the HBS-T mixture (150 mM NaCl, 10 mM Hepes, 0.05% polysorbate 20, 3.4 mM EDTA, 5% DMSO, pH 7.4) was selected as the operating buffer at 25 °C. The immobilizing VEGF protein was covalently placed onto the chip at the sensor surface through amide coupling reagent—EDC/NHS {1-ethyl-3-[3-(dimethylamino) propyl]carbodiimide hydrochloride)/N-hydroxysuccinimide}. Following surface activation, the VEGF protein was dissolved using a coupling buffer (0.1 M acetate buffer, pH 4.5) and placed at the surface of the sensor chip, until the RU (resonance unit) signal of the VEGF protein was detected and reached 6500 RU. To remove unreacted VEGF protein, the chip was washed and subsequently reacted with 10 mM glycine-HCl at pH 1.5. […] Data were further analyzed utilizing GE Biacore T200 control software.

HaCaT cells [3] = assay: MTT cell viability (toxicity) in HaCaT cells; type: cell-based, human; details: concentrations up to 100 µM
HUVECs [4] = assay: VEGF-induced cell proliferation (MTT); type: cell-based, human; details: VEGF 10 ng/mL, 48 h, 0.1-10 µM
Description: (§1) VEGF has been reported as a crucial mediator in human umbilical vein endothelial cells (HUVECs).
HUVECs were incubated in the presence of VEGF (10 ng/mL) with or without drug treatments for 48 h. […] The absorbance of the samples at 570 nm was measured using a microplate reader (Thermo Fisher Scientific, Waltham, MA, USA). * p < 0.05; ** p < 0.01; compared with the control group.
First, 5 × 10^4 cells/mL […] cells were seeded on a 96-well plate. After 24 h incubation, 100 μL VEGF at a concentration of 10 ng/mL with various concentrations of analytes were added to the mixture, followed by the addition of 10 μL of MTT solution (5 mg/mL). Th blank group was set up without any drug treatments, while avastin was utilized as a positive control. The mixture was incubated at 37 °C for 4 h before 150 μL DMSO was employed to dissolve formazan salt formed during the reaction. The sample was collected and read under a microplate reader (Thermo Fisher Scientific) at a wavelength of 570 nm. Proliferation values were calculated as follows: cell proliferation (%) = (experimental value − background value)/(blank value − background value) × 100%.

[5] = Caco-2 transepithelial permeability assay; type: in vitro ADME; details: human; for Papp at 0.3 µM: Caco-2, sample tested at 0.3 µM; for Papp at 3 µM: Caco-2, sample tested at 3 µM
VEGF protein = molecular target: T2, VEGF protein (Homo sapiens, UniProt P15692); assay: Ultrafiltration binding assay with HPLC quantification; details: ultrafiltration in presence and absence of VEGF protein
T2 sequence (P15692 1-191 isoform P15692-4): T1 sequence (P15692 1-191 isoform P15692-4)

ERK1/2 = assay: Western blot, phosphorylation of downstream ERK1/2 in HUVECs; type: cell-based, human; details: in the presence of VEGF
Excerpt: (§2) In light of the investigation above, we further evaluated the anti-VEGF efficacy of RE-1 in cell studies. VEGFR2 was previously identified as the main receptor of VEGF protein. […] ERK1/2, a downstream signal factor, was subsequently stimulated and phosphorylated after the activation of VEGFR2 [17].
(A) Cell treatment was the same as in Figure 3. […] Antibodies in use included: anti-rabbit phospho-p44/42 MAPK, anti-rabbit p44/42 MAPK (CST), and anti-rabbit horseradish peroxidase (HRP) secondary antibody. (B) The intensities of each band were quantified and analyzed with the software Image Lab. Values were calculated as percentage of changes compared with a blank control (only medium), in mean ± SD, n = 4. * p < 0.05; compared with the control group.
(§3) HUVECs were seeded onto 12-well plates at a density of 1.5 × 10^4 cells/mL and subjected to serum starvation with a serum-free medium overnight. After treatment with various samples, the cells were directly lysed with 200 μL 2× sodium dodecyl sulfate polyacrylamide gel electrophoresis (SDS-PAGE) lysis buffer (100 mM Tris-Cl, pH 6.8, 8% SDS, 0.2% bromophenol blue, 20% glycerol, 400 mM β-mercaptoethanol). The lysates were obtained and denatured at 85 °C for 15 min. Afterwards, the samples were subjected to SDS-PAGE in a 10% gel. […] The intensities of each band were quantified and analyzed with software Image Lab.

VEGF/VEGFR2 complex = assay: Western blot, phosphorylation of VEGF/VEGFR2 in HUVECs; type: cell-based, human; details: VEGF 10 ng/mL
Description: as §2
(A) VEGF was added at a concentration of 10 ng/mL, and avastin at 200 µg/mL was employed as the positive control. (B) The intensities of each band were quantified and analyzed with software Image Lab (6.1 version). Values were calculated as the percentage of changes compared with blank control (only medium), in mean ± SD, n = 4. * p < 0.05; compared with the control group.
as §3, with “gel. Then, 5% skim milk in Tris-buffered saline of pH 7.4 with 0.1% Tween-20 (as TBST) was used for blocking.” for “gel.”

HUVECs [6] = assay: MTT cell viability (toxicity) in HUVECs; type: cell-based, human; details: cultured HUVECs, concentrations up to 100 µM
HUVECs [7] = assay: Wound closure assay; type: cell-based, human; details: VEGF 10 ng/mL, 0.3 µM to 3 µM, 20 h
Description: as §1
Figure 6 RE-1 reduces VEGF-regulated wound recovery in HUVECs. […] (D) Quantification of wound recovery. Values were calculated as percentage of changes compared with the blank control (only medium), in mean ± SD, n = 4. * p < 0.05; ** p < 0.01; compared with the control group.
A wound closure assay was performed on cultured HUVECs to study cell migration in vitro. Procedures were described previously by Guo et al.. Briefly, HUVECs were seeded onto a 12-well plate at a density of 3 × 10^5 cells/well, and treatments were added when the cells grew to full confluence. The cells were washed with PBS and treated with drugs. The photos of each cell scrape at 0 (At0) and 20 h (At20) were captured with a microscope and imaging software (Zen, https://www.zeiss.com/microscopy/en/products/software/zeiss-zen.html, accessed on 19 January 2025) at a 10× magnification. The software TScratch 1.0 (CSE Lab, Zurich, Switzerland) was used to determine the open area of each scrape photo at various timepoints. Quantification of the recovery rate of wound was calculated according to the following equation: Wound closure (%) = (At0 − At20)/[…] × 100%.

Row | Kd (VEGF165 protein) [µM] | Papp at 0.3 µM [5] [×10⁻⁶ cm/s] | Papp at 3 µM [5] [×10⁻⁶ cm/s] | Compound | inhibition of VEGF-mediated ROS formation (HaCaT cells [1]) | toxicity (apoptosis) in MTT assay (HaCaT cells [3]) | inhibition of VEGF-regulated cell proliferation (HUVECs [4]) | inhibition of ERK1/2 phosphorylation (ERK1/2) | disruption of phosphorylation of VEGF/VEGFR2 (VEGF/VEGFR2 complex) | toxicity (apoptosis) in MTT assay (HUVECs [6]) | inhibition of VEGF-regulated wound closure (HUVECs [7]) | also measured
1 | – | – | – | avastin: avastin (bevacizumab), positive control against VEGF | able to reduce such an induction | – | – | – | – | – | – | –
2 | ~8 | 15.8 | 20.9 | COc1cc(/C=C/c2ccc(OCCCn3c4c(c5cc(Br)ccc53)CCCC4n3cccc3)cc2)cc(OC)c1 (centres unmarked) [RE-1] | better inhibitory performances than resveratrol | no significant apoptosis | significant inhibitory activity | found to block ERK1/2 phosphorylation | able to disrupt the phosphorylation and binding activity of VEGF/VEGFR2 complex | no significant apoptosis | higher efficacy than resveratrol | Intra-day RSD ([2]; acidic solution): 5.84%; Intra-day Mean Peak Area ([2]; acidic solution): 1316.9; Inter-day Mean Peak Area ([2]; acidic solution): 1403.9; Inter-day RSD ([2]; acidic solution): 8.83%; Intra-day RSD ([2]; basic solution): 5.81%; Intra-day Mean Peak Area ([2]; basic solution): 755.8; Inter-day Mean Peak Area ([2]; basic solution): 747.2; Inter-day RSD ([2]; basic solution): 9.35%; Intra-day RSD ([2]; neutral solution): 4.93%; Intra-day Mean Peak Area ([2]; neutral solution): 1002.8; Inter-day Mean Peak Area ([2]; neutral solution): 1046.6; Inter-day RSD ([2]; neutral solution): 9.21%; Papp ([5]; Caco-2, concentrations from 0.3 µM to 3 µM): 15.8 to 20.9 ×10⁻⁶ cm/s; binding degree to the protein (VEGF protein): ~ 32%
3 | ~12 | 15.1 | 18.2 | Oc1ccc(/C=C/c2cc(O)cc(O)c2)cc1 [resveratrol] | inhibitory effectiveness | mild apoptosis at relatively high concentrations | decent inhibition | found to block ERK1/2 phosphorylation | able to disrupt the phosphorylation and binding activity of VEGF/VEGFR2 complex | mild apoptosis at relatively high concentrations | significant inhibitions to wound closure | –
